Source: the NIST ThermoML archive (doi:10.1021/je049572f)

Test: xn = mol fraction of the nth substance listed
Settings: 101.33 kPa, Liquid

CCc1ccccc1 [ethylbenzene] + CN1CCCC1=O
Settings | mass density [kg/m3] | viscosity [mPa·s]
303.15 K, x1 = 0.094 | 1006.25 | 1.415
303.15 K, x1 = 0.1901 | 989.43 | 1.301
303.15 K, x1 = 0.2859 | 972.61 | 1.188
303.15 K, x1 = 0.3839 | 955.98 | 1.081
303.15 K, x1 = 0.4839 | 939.38 | 0.975
303.15 K, x1 = 0.5835 | 923.22 | 0.884
303.15 K, x1 = 0.6854 | 906.91 | 0.796
303.15 K, x1 = 0.7888 | 890.73 | 0.722
303.15 K, x1 = 0.8937 | 874.71 | 0.66
303.15 K, x1 = 1 | 859.95 | 0.598
313.15 K, x1 = 0.094 | 997.35 | 1.216
313.15 K, x1 = 0.1901 | 980.53 | 1.124
313.15 K, x1 = 0.2859 | 963.71 | 1.033
313.15 K, x1 = 0.3839 | 947.11 | 0.94
313.15 K, x1 = 0.4839 | 930.52 | 0.846
313.15 K, x1 = 0.5835 | 914.35 | 0.772
313.15 K, x1 = 0.6854 | 898.04 | 0.705
313.15 K, x1 = 0.7888 | 881.86 | 0.643
313.15 K, x1 = 0.8937 | 865.85 | 0.588
313.15 K, x1 = 1 | 851.14 | 0.537
323.15 K, x1 = 0.094 | 988.46 | 1.057
323.15 K, x1 = 0.1901 | 971.63 | 0.982
323.15 K, x1 = 0.2859 | 954.81 | 0.904
323.15 K, x1 = 0.3839 | 938.2 | 0.829
323.15 K, x1 = 0.4839 | 921.64 | 0.75
323.15 K, x1 = 0.5835 | 905.4 | 0.688
323.15 K, x1 = 0.6854 | 889.1 | 0.629
323.15 K, x1 = 0.7888 | 873 | 0.576
323.15 K, x1 = 0.8937 | 856.9 | 0.525
323.15 K, x1 = 1 | 842.3 | 0.483
333.15 K, x1 = 0.094 | 979.51 | 0.932
333.15 K, x1 = 0.1901 | 962.67 | 0.868
333.15 K, x1 = 0.2859 | 945.85 | 0.801
333.15 K, x1 = 0.3839 | 929.24 | 0.735
333.15 K, x1 = 0.4839 | 912.7 | 0.671
333.15 K, x1 = 0.5835 | 896.46 | 0.618
333.15 K, x1 = 0.6854 | 880.17 | 0.565
333.15 K, x1 = 0.7888 | 864 | 0.52
333.15 K, x1 = 0.8937 | 847.93 | 0.474
333.15 K, x1 = 1 | 833.34 | 0.437
343.15 K, x1 = 0.094 | 970.56 | 0.833
343.15 K, x1 = 0.1901 | 953.71 | 0.774
343.15 K, x1 = 0.2859 | 936.87 | 0.714
343.15 K, x1 = 0.3839 | 920.25 | 0.658
343.15 K, x1 = 0.4839 | 903.71 | 0.603
343.15 K, x1 = 0.5835 | 887.45 | 0.559
343.15 K, x1 = 0.6854 | 871.13 | 0.514
343.15 K, x1 = 0.7888 | 854.97 | 0.472
343.15 K, x1 = 0.8937 | 838.91 | 0.43
343.15 K, x1 = 1 | 824.26 | 0.397
353.15 K, x1 = 0.094 | 961.56 | 0.746
353.15 K, x1 = 0.1901 | 944.7 | 0.695
353.15 K, x1 = 0.2859 | 927.86 | 0.643
353.15 K, x1 = 0.3839 | 911.2 | 0.596
353.15 K, x1 = 0.4839 | 894.64 | 0.547
353.15 K, x1 = 0.5835 | 878.35 | 0.505
353.15 K, x1 = 0.6854 | 862.01 | 0.468
353.15 K, x1 = 0.7888 | 845.86 | 0.43
353.15 K, x1 = 0.8937 | 829.76 | 0.391
353.15 K, x1 = 1 | 815.18 | 0.366
